Data from patent US10918713B2, “Epitopes from allergen proteins and methods and uses for immune response modulation” (LA JOLLA INSTITUTE FOR ALLERGY AND IMMUNOLOGY, priority 2012, dated 2021).
Where “and” joins values, the source holds several entries; their conditions need not be identical. Equal values may be shown once.

Experiments:
Format in all cases: cell-based, human
[1] = test system: PBMC from allergic donors; experiment: IFN-γ ELISPOT with extract-stimulated short-term lines; conditions: positive donor/peptide response
Description: (§1) Spots were counted by computer-assisted image analysis (Zeiss, KS-ELISPOT reader, Munich, Germany).
(§2) Each assay was performed in triplicate. The level of statistical significance was determined with a Student's t-test using the mean of triplicate values of the response against relevant pools or individual peptides versus the response against the DMSO control.

[2] = test system: PBMC from allergic donors; experiment: IL-5 ELISPOT with extract-stimulated short-term lines; conditions: positive donor/peptide response
Description: as §1, §2

[3] = test system: PBMC from allergic donors; experiment: Dual ELISPOT, total IL-5 and IFN-γ response (SFC); conditions: sum of IFNg and IL-5
Description: as §1, §2

Row | Compound | Response (SFC/10^6) IFNg ([1]; one donor per table line) | Response (SFC/10^6) IL-5 ([2]; one donor per table line) | Response (SFC/10^6) IFNg ([1]; each table line is one donor) | Response (SFC/10^6) IL-5 ([2]; each table line is one donor) | Response (SFC/10^6) Total ([3]; each table line is one donor) | Response (SFC/10^6) Total ([3]; one donor per table line)
1 | 3324.0001 (AVGLLKAVESYLLAH) | 597 SFC/10^6 | 597 SFC/10^6 |  |  |  | 
2 | 3324.0099 (MKNIFMLTLFILIIT) |  |  | 77 SFC/10^6 | 57 SFC/10^6 | 57 SFC/10^6 and 77 SFC/10^6 | 
3 | 3324.0100 (MLTLFILIITSTIKA) |  |  | 63 SFC/10^6 and 167 SFC/10^6 |  | 63 SFC/10^6 and 167 SFC/10^6 | 
4 | 3324.0102 (DKWLDAKSTWYGKPT) | 447 SFC/10^6 and 233 SFC/10^6 and 123 SFC/10^6 | 147 SFC/10^6 |  |  |  | 593 SFC/10^6 and 233 SFC/10^6 and 123 SFC/10^6
5 | 3324.0103 (IAKVPPGPNITATYG) | 153 SFC/10^6 and 223 SFC/10^6 and 267 SFC/10^6 |  |  |  |  | 153 SFC/10^6 and 223 SFC/10^6 and 267 SFC/10^6
6 | 3324.0372 (PAKNIYSFNEIVALW) | 67 SFC/10^6 |  |  |  |  | 67 SFC/10^6
7 | 3324.0379 (TNFEIEASFGVEASE) | 1113 SFC/10^6 |  |  |  |  | 1113 SFC/10^6
8 | 3324.0380 (VILAINHSVFVKGDH) | 1410 SFC/10^6 |  |  |  |  | 1410 SFC/10^6
9 | 3324.0382 (LYPDVKYTTVEEYLQ) | 67 SFC/10^6 | 67 SFC/10^6 |  |  |  | 
10 | 3324.0384 (VKAFKQVDVVISTVG) | 1007 SFC/10^6 |  |  |  |  | 1007 SFC/10^6
11 | 3324.0613 (MNIKLQMPLYVAGYK) | 120 SFC/10^6 | 652 SFC/10^6 |  |  |  | 652 SFC/10^6 and 120 SFC/10^6
12 | 3324.0630 (LVATSAISLHMQEAG) | 83 SFC/10^6 |  |  |  |  | 83 SFC/10^6
13 | 3324.0633 (MLAVVAVVLASMVGG) | 227 SFC/10^6 |  |  |  |  | 227 SFC/10^6
14 | 3324.0639 (TVWAQSAAFPAFKPE) | 463 SFC/10^6 and 100 SFC/10^6 |  |  |  |  | 463 SFC/10^6 and 100 SFC/10^6
15 | 3324.0652 (LRTLGSTSADEVQRM) | 113 SFC/10^6 |  |  |  |  | 113 SFC/10^6
16 | 3324.0660 (IPTAFKIGTTYTPEE) | 110 SFC/10^6 | 170 SFC/10^6 |  |  |  | 280 SFC/10^6
17 | 3324.0834 (KAFNKSYATFEDEEA) | 1563 SFC/10^6 | 703 SFC/10^6 |  |  |  | 2267 SFC/10^6
18 | 3324.0836 (EIDLRQMRTVTPIRM) | 120 SFC/10^6 | 613 SFC/10^6 |  |  |  | 733 SFC/10^6
19 | 3324.0842 (GGAINHLSDLSLDEF) | 170 SFC/10^6 | 603 SFC/10^6 |  |  |  | 773 SFC/10^6
20 | 3324.0894 (NGKLHLSLIDPSTLS) | 460 SFC/10^6 |  |  |  |  | 460 SFC/10^6
21 | 3324.0914 (FAFGYFNGRILGVCP) | 133 SFC/10^6 |  |  |  |  | 133 SFC/10^6
22 | 3324.0918 (NAMDEIIKSTDAEPA) | 260 SFC/10^6 |  |  |  |  | 260 SFC/10^6
23 | 3324.0922 (TGLPLMYKFGDNLVV) | 247 SFC/10^6 |  |  |  |  | 247 SFC/10^6

Row | Compound | Response (SFC/10^6) IFNg ([1]; one donor per table line) | Response (SFC/10^6) IL-5 ([2]; one donor per table line) | Response (SFC/10^6) IFNg ([1]; each table line is one donor) | Response (SFC/10^6) IL-5 ([2]; each table line is one donor) | Response (SFC/10^6) Total ([3]; each table line is one donor) | Response (SFC/10^6) Total ([3]; one donor per table line)
24 | 3324.1133 (MASSSSVLLVVALFA) | 53 SFC/10^6 |  |  |  |  | 53 SFC/10^6
25 | 3324.1145 (LRKYGIAAENVIDVK) |  |  | 50 SFC/10^6 |  | 50 SFC/10^6 | 
26 | 3324.1151 (NEMSWIESIPFVHLG) |  |  | 1933 SFC/10^6 |  | 1933 SFC/10^6 | 
27 | 3324.1152 (FPHRKGVLFNIQYVN) |  |  | 100 SFC/10^6 |  | 100 SFC/10^6 | 
28 | 3324.1159 (PENFAVVDLNQMRAV) |  |  | 75 SFC/10^6 |  | 75 SFC/10^6 | 
29 | 3324.1166 (HTVALFLAVALVAGP) |  |  | 53 SFC/10^6 |  | 53 SFC/10^6 | 
30 | 3324.1169 (DAALKLAYEAAQGAT) |  |  | 120 SFC/10^6 |  | 120 SFC/10^6 | 
31 | 3324.1171 (KTFVETFGTATNKAF) |  |  | 73 SFC/10^6 |  | 73 SFC/10^6 | 
32 | 3324.1177 (AAVKQAYAAKQATAP) |  |  | 43 SFC/10^6 |  | 43 SFC/10^6 | 
33 | 3324.1180 (PEAKYDAYVATLTEA) |  |  | 227 SFC/10^6 |  | 227 SFC/10^6 | 
34 | 3324.1443 (DAAYRVAYEAAEGST) |  |  | 70 SFC/10^6 |  | 70 SFC/10^6 | 
35 | 3324.1636 (FFSANAAALASRKSS) |  |  | 93 SFC/10^6 |  | 93 SFC/10^6 | 
36 | 3324.1647 (SLATLQSLESIVGKD) |  |  | 228 SFC/10^6 |  | 228 SFC/10^6 | 
37 | 3324.1653 (FDLYFSMARGNASLP) |  |  | 343 SFC/10^6 |  | 343 SFC/10^6 | 
38 | 3337.0006 (KQEDDGLCYEGTNCG) |  |  | 123 SFC/10^6 |  | 123 SFC/10^6 | 
39 | 3337.0007 (GKYCVCYDSKAICNK) |  |  | 47 SFC/10^6 |  | 47 SFC/10^6 | 
40 | 3337.0039 (SWGAIWRIDTPDKLT) |  |  | 155 SFC/10^6 |  | 155 SFC/10^6 | 
41 | CC[C@H](C)[C@H](NC(=O)[C@H](Cc1ccccc1)NC(=O)[C@H](C)NC(=O)[C@H](CCCCN)NC(=O)[C@H](Cc1ccccc1)NC(=O)[C@H](CC(C)C)NC(=O)[C@H](CCCNC(=N)N)NC(=O)[C@H](C)NC(=O)[C@H](C)NC(=O)[C@@H]1CCCN1C(=O)[C@@H](NC(=O)[C@@H](NC(=O)[C@H](CO)NC(=O)[C@@H]1CCCN1)C(C)C)[C@@H](C)CC)C(=O)N[C@@H](CC(C)C)C(=O)O [3324.0004] | 683 SFC/10^6 |  |  |  |  | 683 SFC/10^6
42 | CC[C@H](C)[C@H](NC(=O)[C@H](CO)NC(=O)CNC(=O)CN)C(=O)N[C@@H](CC(C)C)C(=O)N[C@@H](CCCCN)C(=O)N[C@H](C(=O)N[C@@H](CO)C(=O)N[C@@H](CC(N)=O)C(=O)N[C@@H](CCCCN)C(=O)N[C@@H](Cc1ccccc1)C(=O)N[C@@H](Cc1c[nH]cn1)C(=O)N[C@H](C(=O)N[C@@H](CCCCN)C(=O)NCC(=O)O)[C@@H](C)O)[C@@H](C)CC [3324.0007] | 887 SFC/10^6 and 357 SFC/10^6 |  |  |  |  | 887 SFC/10^6 and 357 SFC/10^6
43 | CC[C@H](C)[C@H](N)C(=O)N[C@H](C(=O)N[C@@H](Cc1ccc(O)cc1)C(=O)N[C@H](C(=O)N[C@@H](CCCCN)C(=O)N1CCC[C@H]1C(=O)N[C@@H](C)C(=O)N[C@@H](CCCCN)C(=O)N[C@@H](CC(N)=O)C(=O)N[C@H](C(=O)N[C@@H](Cc1ccc(O)cc1)C(=O)N[C@@H](CO)C(=O)N[C@@H](Cc1ccccc1)C(=O)N[C@@H](CC(N)=O)C(=O)N[C@@H](CCC(=O)O)C(=O)O)[C@@H](C)CC)[C@@H](C)CC)C(C)C [3324.0386] | 227 SFC/10^6 and 487 SFC/10^6 |  |  |  |  | 227 SFC/10^6 and 487 SFC/10^6
44 | CC[C@H](C)[C@H](NC(=O)[C@H](CC(N)=O)NC(=O)[C@H](CCCCN)NC(=O)[C@H](C)NC(=O)[C@@H]1CCCN1C(=O)[C@H](CCCCN)NC(=O)[C@@H](NC(=O)[C@H](Cc1ccc(O)cc1)NC(=O)[C@@H](NC(=O)[C@@H](NC(=O)[C@H](CCCCN)NC(=O)[C@H](CC(N)=O)NC(=O)[C@H](CC(C)C)NC(=O)[C@@H](NC(=O)[C@@H](N)CCCNC(=N)N)[C@@H](C)O)[C@@H](C)CC)C(C)C)[C@@H](C)CC)C(=O)O [3324.0387] | 580 SFC/10^6 and 140 SFC/10^6 |  |  |  |  | 580 SFC/10^6 and 140 SFC/10^6
45 | CC[C@H](C)[C@H](NC(=O)[C@H](CC(N)=O)NC(=O)[C@H](CCSC)NC(=O)[C@H](CC(N)=O)NC(=O)[C@H](CCC(N)=O)NC(=O)[C@H](CO)NC(=O)[C@H](Cc1ccccc1)NC(=O)[C@@H](NC(=O)[C@@H](NC(=O)[C@H](Cc1c[nH]c2ccccc12)NC(=O)[C@H](CC(C)C)NC(=O)[C@H](C)NC(=O)[C@@H](N)CCCCN)[C@@H](C)CC)[C@@H](C)CC)C(=O)N[C@@H](CCCCN)C(=O)N[C@@H](CC(C)C)C(=O)O [3324.0604] | 390 SFC/10^6 |  |  |  |  | 390 SFC/10^6
